“And” between values parts separate entries of the source, which are not always exact repeats. Equal entries are not always repeated.
Columns and labels:
[1] = system: B. burgdorferi sensu stricto (B31 strain); assay: In-vitro assessment of cefovecin efficacy (live spirochetes in culture by light microscopy); type: cell-based, Borrelia burgdorferi; settings: for Number of B. burgdorferi spirochetes per field-of-view (geometric mean per ten field of views): cultures A, C
Experimental: B. burgdorferi sensu stricto (B31 strain) was cultured. The experimental (triplicate) groups included a control, 0.02 μg/mL cefovecin, and 2 μg/mL cefovecin. Cultures were viewed by light microscopy at 0, 6, 24, 30, 48, and 54 hours post inoculation to assess number of live spirochetes (Table 1).

B. burgdorferi = assay: Study A: Quantitative C6 (QC6) antibody ELISA in tick-infected dogs; type: in vivo, beagle dogs; settings: Convenia Rx Days 83 and 97
Text: Three outer surface proteins (Osp) on B. burgdorferi are important for diagnosis and prevention, and are expressed by the organism in response to its local environment. […] OspF is another surface protein that is generally observed in late-stage disease. The C in […] refers to a 25-amino acid, C6 peptide in the sixth invariable region of an outer membrane lipoprotein (VIsE). Antibody against C6 is highly accurate as a serologic diagnosis of Lyme disease independent of a subject's (e.g., canine) vaccination status. Further, the generation of C6 antibodies implies an active infection with viable spirochetes. Serological methods for detecting B. burgdorfer/Lyme disease were conducted using the IDEXX qualitative SNAP-4Dx ELISA and the Quantitative C6 (Quant C6 or QC6) diagnostic kits, which are enzyme linked immunosorbent assays against the previously described 25-amino-acid C6 peptide. QC6 ELISA data, units/mL, are useful for guidance in initiating and evaluating response to therapy (See Levy S A, O'Connor T P, Hanscom J L, Shields P, et al. Quantitative measurement of a C6 antibody following antibiotic treatment of Borrelia burgdorferi antibody-positive, nonclinical dogs. Clin Vacc Immunol 2008; 15(1):115-119 and Littman M P, Goldstein R E, Labato M A, et al. ACVIM Small Animal Concensus Statement on Lyme Disease in Dogs: Diagnosis, Treatment and Prevention. J Vet Intern Med 2006; 20: 422-434).
Twenty-three adult female beagle dogs were used in this study; all were sero-negative for Borrelia, not vaccinated with any Borrelia spp vaccines, and acclimated at the study facility for seven days prior to any study activities. The study was conducted under National Research Council guidelines (1996. Dogs were randomized to a non-infected control (n=7 dogs) group, or infected groups (n=8 dogs/region) using ticks from two regions of the USA, Region A (New England (NE), i.e., Rhode Island) and Region B (Midwest (MW), i.e., Wisconsin). Dogs were infected on Day 0 with up to 30 Ixodes scapularis ticks per dog. Tick attachment was monitored daily and after nine days, remaining ticks were harvested and all dogs were treated with two topical applications of an approved acaricide observing a 30-day interval between applications. Dogs were monitored 21-days post-challenge for pyrexia, and the entire post-challenge period for clinical signs of Lyme disease (lameness, ataxia, anorexia, lymphadenopathy and depression).
Blood was collected from each dog weekly to Day 28, then every two-weeks for the remainder of the study (166 days). Serum antibodies to Borrelia were assayed using SNAP-4Dx and QC6 ELISA. Two skin punch biopsies were collected near tick attachment sites from each dog every 28 days post-challenge for bacterial culture.
Comparisons included serology, skin culture results and joint pathology.

[2] = system: B. burgdorferi outer surface protein OspC; assay: Study B: fluorescent-bead-based multiplex assay, antibodies against OspC; type: in vivo, beagle dogs; settings: Day 111
Experimental: Thirty-two (18 male and 14 female) beagle dogs were sero-negative for Borrelia burgdorferi, not vaccinated with any Borrelia spp vaccines, and acclimated at the study facility for seven days. The study was conducted under National Research Council guidelines (1996). […] Field-caught Ixodes from the northeast USA were placed on the dogs without containment chambers for 10 days; after ticks fed to repletion, dogs were treated with two applications of an approved topical acaricide with a 30-day interval between applications.
Forty days post-challenge, and prior to antibiotic treatments, blood was collected from each dog as were two skin biopsy punch samples near tick attachment sites. Blood was collected approximately monthly post-treatment. Skin biopsies were taken near the tick attachment site on Days 48/49, 118, 146, 180, and 315. Serum antibodies to Borrelia were assayed using the IDEXX SNAP-4Dx and QC6 ELISA. In cooperation with Cornell University, serum samples were analyzed using fluorescent-bead-based multiplex assays detecting antibodies against B. burgdorferi outer surface proteins OspA, OspC, and OspF. Data were expressed as median fluorescent intensities (MFI), and shown to be specific and sensitive to provide interpretative guidelines regarding infection. The skin biopsies were collected for a polymerase chain reaction (PCR; FlaB) assay and cultured for spirochete detection. […]

[3] = dog, in vivo, sc, 8 mg/kg
Experimental: On Days 83 and 97, Convenia was administered (8 mg/kg bodyweight; subcutaneous injection). Treated dogs, 8 B. burgdorferi-positive and 4 controls, were compared to untreated cohorts (8 B. burgdorferi-positive, and 3 controls).

[4] = feline; cited from earlier work
[5] = following subcutaneous injection; cited from earlier work

CO/N=C(\C(=O)N[C@@H]1C(=O)N2C(C(=O)[O-])=C([C@@H]3CCCO3)CS[C@H]12)c1csc(N)n1.[Na+] [Convenia, (6R,7R)-7-[[(2Z)-(2-amino-4-thiazolyl)(methoxyimino)acetyl]-amino]-8-oxo-3-[(2S)-tetrahydro-2-furanyl]-5-thia-1-azabicyclo[4.2.0]oct-2-ene-2-carboxylic acid, monosodium salt]
Number of B. burgdorferi spirochetes per field-of-view (geometric mean per ten field of views) ([1]; 0.02 μg/mL, 0 hours): 0 | Number of B. burgdorferi spirochetes per field-of-view (geometric mean per ten field of views) ([1]; 0.02 μg/mL, 24 hours, listed as cefovecin, monosodium salt): 1.7 and 2.1 and 2.0 | Number of B. burgdorferi spirochetes per field-of-view (geometric mean per ten field of views) ([1]; 0.02 μg/mL, 48 hours, listed as cefovecin, monosodium salt): 7.2 and 4.1 and 5.9 | Number of B. burgdorferi spirochetes per field-of-view (geometric mean per ten field of views) ([1]; 0.02 μg/mL, 54 hours, listed as cefovecin, monosodium salt): 8.1 and 10.2 and 9.0 | Retardation of growth of B. burgdorferi ([1]; 0.02 μg/mL, in 54 hours): at least 30% | Time after which B. burgdorferi is eliminated in culture ([1]; 2 μg/mL): about 24 hours | Number of B. burgdorferi spirochetes per field-of-view (geometric mean per ten field of views) ([1]; 2 μg/mL, 0 hours): 0 | Number of B. burgdorferi spirochetes per field-of-view (geometric mean per ten field of views) ([1]; 2 μg/mL, 30 hours): 0 | Number of B. burgdorferi spirochetes per field-of-view (geometric mean per ten field of views) ([1]; 2 μg/mL, 48 hours): 0 | Number of B. burgdorferi spirochetes per field-of-view (geometric mean per ten field of views) ([1]; 2 μg/mL, 54 hours): 0 | Mean QC6 Antibody Levels (B. burgdorferi; Group 4 Control (no ticks), Day 0): 0 U/mL | Mean QC6 Antibody Levels (B. burgdorferi; Group 4 Control (no ticks), Day 7): 0 U/mL | Mean QC6 Antibody Levels (B. burgdorferi; Group 4 Control (no ticks), Day 20): 0 U/mL | Mean QC6 Antibody Levels (B. burgdorferi; Group 4 Control (no ticks), Day 27): 0 U/mL | Mean QC6 Antibody Levels (B. burgdorferi; Group 4 Control (no ticks), Day 41): 0 U/mL | Mean QC6 Antibody Levels (B. burgdorferi; Group 4 Control (no ticks), Day 54): 0 U/mL | Mean QC6 Antibody Levels (B. burgdorferi; Group 4 Control (no ticks), Day 69): 0 U/mL | Mean QC6 Antibody Levels (B. burgdorferi; Group 4 Control (no ticks), Day 83): 0 U/mL | Mean QC6 Antibody Levels (B. burgdorferi; Group 4 Control (no ticks), Day 97): 0 U/mL | Mean QC6 Antibody Levels (B. burgdorferi; Group 4 Control (no ticks), Day 111): 0 U/mL | Mean QC6 Antibody Levels (B. burgdorferi; Group 4 Control (no ticks), Day 125): 0 U/mL | Mean QC6 Antibody Levels (B. burgdorferi; Group 4 Control (no ticks), Day 138): 0 U/mL | Mean QC6 Antibody Levels (B. burgdorferi; Group 4 Control (no ticks), Day 153): 0 U/mL | Mean QC6 Antibody Levels (B. burgdorferi; Group 4 Control (no ticks), Day 166): 0 U/mL | Mean QC6 Antibody Levels (B. burgdorferi; Group 5 NE Ticks, Day 0 (infestation)): 0 U/mL | Mean QC6 Antibody Levels (B. burgdorferi; Group 5 NE Ticks, Day 7 (pre-treatment)): 0 U/mL | Mean QC6 Antibody Levels (B. burgdorferi; Group 5 NE Ticks, Day 20 (pre-treatment)): 148.5 U/mL | Mean QC6 Antibody Levels (B. burgdorferi; Group 5 NE Ticks, Day 27 (pre-treatment)): 148.75 U/mL | Mean QC6 Antibody Levels (B. burgdorferi; Group 5 NE Ticks, Day 41 (pre-treatment)): 239.25 U/mL | Mean QC6 Antibody Levels (B. burgdorferi; Group 5 NE Ticks, Day 54 (pre-treatment)): 209.5 U/mL | Mean QC6 Antibody Levels (B. burgdorferi; Group 5 NE Ticks, Day 69 (pre-treatment)): 270.75 U/mL | Mean QC6 Antibody Levels (B. burgdorferi; Group 5 NE Ticks, Day 83 (first dose)): 122 U/mL | Mean QC6 Antibody Levels (B. burgdorferi; Group 5 NE Ticks, Day 97 (second dose)): 99.5 U/mL | Mean QC6 Antibody Levels (B. burgdorferi; Group 5 NE Ticks, Day 111): 48.25 U/mL | Mean QC6 Antibody Levels (B. burgdorferi; Group 5 NE Ticks, Day 125): 20.5 U/mL | Mean QC6 Antibody Levels (B. burgdorferi; Group 5 NE Ticks, Day 138): 7.75 U/mL | Mean QC6 Antibody Levels (B. burgdorferi; Group 5 NE Ticks, Day 153): 4.25 U/mL | Mean QC6 Antibody Levels (B. burgdorferi; Group 5 NE Ticks, Day 166): 3 U/mL | Mean QC6 Antibody Levels (B. burgdorferi; Group 6 MW Ticks, Day 0 (infestation)): 0 U/mL | Mean QC6 Antibody Levels (B. burgdorferi; Group 6 MW Ticks, Day 7 (pre-treatment)): 0 U/mL | Mean QC6 Antibody Levels (B. burgdorferi; Group 6 MW Ticks, Day 20 (pre-treatment)): 66.5 U/mL | Mean QC6 Antibody Levels (B. burgdorferi; Group 6 MW Ticks, Day 27 (pre-treatment)): 155 U/mL | Mean QC6 Antibody Levels (B. burgdorferi; Group 6 MW Ticks, Day 41 (pre-treatment)): 147.25 U/mL | Mean QC6 Antibody Levels (B. burgdorferi; Group 6 MW Ticks, Day 54 (pre-treatment)): 149.25 U/mL | Mean QC6 Antibody Levels (B. burgdorferi; Group 6 MW Ticks, Day 69 (pre-treatment)): 110.75 U/mL | Mean QC6 Antibody Levels (B. burgdorferi; Group 6 MW Ticks, Day 83 (first dose)): 93.75 U/mL | Mean QC6 Antibody Levels (B. burgdorferi; Group 6 MW Ticks, Day 97 (second dose)): 74.25 U/mL | Mean QC6 Antibody Levels (B. burgdorferi; Group 6 MW Ticks, Day 111): 51.5 U/mL | Mean QC6 Antibody Levels (B. burgdorferi; Group 6 MW Ticks, Day 125): 29 U/mL | Mean QC6 Antibody Levels (B. burgdorferi; Group 6 MW Ticks, Day 138): 22 U/mL | Mean QC6 Antibody Levels (B. burgdorferi; Group 6 MW Ticks, Day 153): 8.25 U/mL | Mean QC6 Antibody Levels (B. burgdorferi; Group 6 MW Ticks, Day 166): 6.5 U/mL | Number of dogs above infected threshold (antibody-OspC) [2]: one | Adverse or unexpected events [3]: No adverse or unexpected events | Elimination half-life [4]: ~166 h | Absorption [5]: rapidly and completely absorbed

From patent US9265771B2, “Method for treating Lyme disease” (Zoetis Services LLC, priority 2012, dated 2016)
